According to patent US20250332173A1, “COMPOUNDS AND METHODS FOR MODULATING NUCLEIC ACID SPLICING” (REMIX THERAPEUTICS INC., priority 2021, published 2025):
Where two headings read alike, the source gives them in different places.

Columns and labels:
SMN2 mRNA = assay: RT-qPCR splicing assay, SMN2 canonical junction (CJ) mRNA; assay type: cell-based, human; conditions: Homo sapiens
Method in brief: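 Cells are plated (A673 allowed 24 h to adhere), dosed with an 11-point 3-fold series topping at 10 uM final, and incubated 24 h at 37 °C. Lysis is followed by cDNA synthesis and qPCR of the CJ transcript, normalized to a housekeeping gene.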

[1] = system: K562 (human chronic myelogenous leukemia) cells; assay: Cell Titer Glo 2.0 cell viability assay; assay type: cell-based; conditions: Homo sapiens, K562, 72 h, K562 cells, 72 hours, Cell Titer Glo 2.0; read-out: K562 GI50
HTT = assay: HiBiT protein abundance assay, HTT HiBiT K562 cell line; assay type: cell-based, human; conditions: HiBiT K562 cell line, 24 hours, top dose 10 μM; read-out: Effect on protein abundance, HTT (IC50 category)
Method in brief: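 Endogenous targets in K562 knock-in lines carried a HiBiT tag and were treated for 24 h at 37 °C with 10-point 3-fold dilutions (top 10 μM final, DMSO ≤0.25%). Abundance was read as lytic Nano-Glo HiBiT luminescence. IC50 came from a four-parameter logistic fit of normalized response.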

[2] = canonical junction qPCR panel, Table 5, read-out: SMN2 (decrease in CJ mRNA levels, IC50)
[3] = Table 5 panel, canonical junction qPCR, compound concentration having 50% response in CJ decrease, read-out: SMN2 IC50 (decrease in CJ mRNA levels)

Structure (SMILES) | IC50 (SMN2 mRNA; [2]) [nM] | GI50 [1] [nM] | IC50 (HTT) [nM] | IC50 (SMN2 mRNA; [3]) [nM]
Cc1c(O)c(-c2ncc3c(=O)n(C4CCNC4)ccc3n2)cc2cn(C)nc12 (stereo in doubt) [Compound 1439, (6R)-2-(6-hydroxy-2,7-dimethyl-indazol-5-yl)-6-pyrrolidin-3-yl-pyrido[4,3-d]pyrimidin-5-one] | < 100 | 100 to 1000 | 1000 to 10000 | –
Cc1c(O)c(-c2ncc3c(=O)n(C4CCNC4)ccc3n2)cc2cn(C)nc12 (stereo in doubt) [Compound 1440, (6S)-2-(6-hydroxy-2,7-dimethyl-indazol-5-yl)-6-pyrrolidin-3-yl-pyrido[4,3-d]pyrimidin-5-one] | < 100 | 100 to 1000 | 1000 to 10000 | –
Cc1c(O)c(-c2ncc3c(=O)n([C@@H]4CC5CC4CN5)ccc3n2)cc2cn(C)nc12 (stereo in doubt) [Compound 1443, 6-[(1R,4R,5R)-2-azabicyclo[2.2.1]heptan-5-yl]-2-(6-hydroxy-2,7-dimethyl-indazol-5-yl)pyrido[4,3-d]pyrimidin-5-one] | < 100 | 100 to 1000 | 1000 to 10000 | –
Cc1c(O)c(-c2ncc3c(=O)n(C4C[C@H]5C[C@@H]4CN5)ccc3n2)cc2cn(C)nc12 (stereo in doubt) [Compound 1444, 6-[(1R,4R,5R)-2-azabicyclo[2.2.1]heptan-5-yl]-2-(6-hydroxy-2,7-dimethyl-indazol-5-yl)pyrido[4,3-d]pyrimidin-5-one] | < 100 | 100 to 1000 | 100 to 1000 | –
Cc1c(O)c(-c2ncc3c(=O)n([C@@H]4C[C@H]5C[C@@H]4CN5)ccc3n2)cc2cn(C)nc12 (stereo in doubt) [Compound 1446, 6-[(1R,4R,5R)-2-azabicyclo[2.2.1]heptan-5-yl]-2-(6-hydroxy-2,7-dimethyl-indazol-5-yl)pyrido[4,3-d]pyrimidin-5-one] | 100 to 1000 | 100 to 1000 | > 10000 | –
Cn1cc2cc(-c3ccc4c(=O)n(C5CCNCC5)cnc4c3)ccc2n1 [Compound 182] | – | 100 to 1000 | 1000 to 10000 | < 100
Cc1cn2nc(-c3ccc4c(=O)n(C5CCNCC5)ncc4c3)cc(C)c2n1 [Compound 186] | – | 100 to 1000 | 100 to 1000 | < 100
Cc1cn2nc(-c3ccc4c(c3F)CCN(C3CCNCC3)C4=O)cc(C)c2n1 [Compound 188] | – | 1000 to 10000 | 1000 to 10000 | < 100
CN1CCC(Nc2ccc3c(=O)n(-c4ccc5cn(C)nc5c4)cnc3c2)CC1 [Compound 203] | – | > 10000 | > 10000 | > 10000
Cn1cc2ccc(-n3cnc4cc(NC5CCNCC5)ccc4c3=O)cc2n1 [Compound 204] | – | > 10000 | > 10000 | > 10000
Cc1c(O)c(-c2ncc3c(=O)n(C4CCNCC4)cc(C)c3n2)cc2cn(C)nc12 [Compound 1191] | – | < 100 | 1000 to 10000 | < 100
Cc1cn2cc(-c3cc4ccn(C5CCNCC5)c(=O)c4cn3)cc(F)c2n1 [Compound 1196] | – | 100 to 1000 | 100 to 1000 | < 100
Cc1cn2nc(-c3cc4ccn(C5CCNCC5)c(=O)c4cn3)cc(C)c2n1 [Compound 1198, 6-(2,8-dimethylimidazo[1,2-b]pyridazin-6-yl)-2-(piperidin-4-yl)-2,7-naphthyridin-1(2H)-one] | – | 100 to 1000 | 100 to 1000 | 100 to 1000
Cn1cc2cc(-c3cc4ccn(C5CCNCC5)c(=O)c4cn3)c(O)c(F)c2n1 [Compound 1199] | – | 1000 to 10000 | 1000 to 10000 | < 100
Cc1cc(-c2cc3ccn(C4CCNCC4)c(=O)c3cn2)cc2cn(C)nc12 [Compound 1204, 6-(2,7-dimethyl-2H-indazol-5-yl)-2-(piperidin-4-yl)-2,7-naphthyridin-1(2H)-one] | – | 100 to 1000 | 100 to 1000 | < 100
Cc1cn2cc(-c3cc4ccn(C5CCNCC5)c(=O)c4cn3)nc(C)c2n1 [Compound 1205, 6-(2,8-dimethylimidazo[1,2-a]pyrazin-6-yl)-2-(piperidin-4-yl)-2,7-naphthyridin-1(2H)-one] | – | 100 to 1000 | 100 to 1000 | < 100
Cc1cc(-c2cc3ccn(C4CCN(C)CC4)c(=O)c3cn2)cc2cn(C)nc12 [Compound 1206, 6-(2,7-dimethyl-2H-indazol-5-yl)-2-(1-methylpiperidin-4-yl)-2,7-naphthyridin-1(2H)-one] | – | 1000 to 10000 | 1000 to 10000 | < 100

Structure (SMILES) | IC50 (SMN2 mRNA; [2]) [nM] | GI50 [1] [nM] | IC50 (HTT) [nM] | IC50 (SMN2 mRNA; [3]) [nM]
CCN1CCC(n2ccc3cc(-c4cc(C)c5nn(C)cc5c4)ncc3c2=O)CC1 [Compound 1207, 6-(2,7-dimethyl-2H-indazol-5-yl)-2-(1-ethylpiperidin-4-yl)-2,7-naphthyridin-1(2H)-one] | – | 1000 to 10000 | 1000 to 10000 | < 100
Cc1cc(-c2cc3ccn(C4CCN(C5CC5)CC4)c(=O)c3cn2)cc2cn(C)nc12 [Compound 1208, 2-(1-cyclopropylpiperidin-4-yl)-6-(2,7-dimethyl-2H-indazol-5-yl)-2,7-naphthyridin-1(2H)-one] | – | > 10000 | > 10000 | 100 to 1000
Cc1cc(-c2cc3ccn(C4CCN(C5COC5)CC4)c(=O)c3cn2)cc2cn(C)nc12 [Compound 1209, 6-(2,7-dimethyl-2H-indazol-5-yl)-2-(1-(oxetan-3-yl)piperidin-4-yl)-2,7-naphthyridin-1(2H)-one-1] | – | 100 to 1000 | 100 to 1000 | 100 to 1000
Cc1cc(-c2cc3ccn(C4CCN(CCO)CC4)c(=O)c3cn2)cc2cn(C)nc12 [Compound 1210, 6-(2.7-dimethyl-2H-indazol-5-yl)-2-(1-(2-hydroxyethyl)piperidin-4-yl)-2,7-naphthyridin-1(2H)-one] | – | 1000 to 10000 | 1000 to 10000 | 100 to 1000
Cn1cc2cc(-c3ncc4c(=O)n(C5CCNCC5)ccc4n3)c(O)cc2n1 [Compound 1211] | – | < 100 | 100 to 1000 | < 100
Cn1cc2cc(-c3ncc4c(=O)n(C5CCNCC5)ccc4n3)cc(F)c2n1 [Compound 1212, 2-(7-fluoro-2-methyl-2H-indazol-5-yl)-6-(piperidin-4-yl)pyrido[4,3-d]pyrimidin-5(6H)-one] | – | 100 to 1000 | < 100 | < 100
Cc1cn2cc(-c3cc4ccn(C5CCNC5)c(=O)c4cn3)cc(C#N)c2n1 (stereo not drawn) [Compound 1214] | – | 1000 to 10000 | > 10000 | 100 to 1000
Cc1cn2cc(-c3ncc4c(=O)n(C5CCNC5)ccc4n3)cc(F)c2n1 (stereo not drawn) [Compound 1215] | – | 1000 to 10000 | > 10000 | < 100
COc1c(-c2cc3ccn(C4CCNCC4)c(=O)c3cn2)cc2cn(C)nc2c1F [Compound 1219] | – | 1000 to 10000 | 1000 to 10000 | 100 to 1000
Cc1cn2cc(-c3ncc4c(=O)n([C@H]5CCNC5)ccc4n3)cc(F)c2n1 [Compound 1220] | – | 100 to 1000 | 100 to 1000 | < 100
Cc1cn2cc(-c3ncc4c(=O)n(C5CCNC5)ccc4n3)cc(C#N)c2n1 (stereo not drawn) [Compound 1221] | – | 100 to 1000 | 100 to 1000 | 100 to 1000
Cc1c(O)c(-c2ncc3c(=O)n(C4CCNC4)ccc3n2)cc2cn(C)nc12 (stereo not drawn) [Compound 1222] | – | 1000 to 10000 | > 10000 | < 100
Cn1cc2cc(-c3ncc4c(=O)n(C5CCNC5)ccc4n3)c(O)c(F)c2n1 (stereo not drawn) [Compound 1223] | – | 1000 to 10000 | 1000 to 10000 | < 100
Cc1cn2cc(-c3ncc4c(=O)n(C5CCNCC5)ccc4n3)c(O)c(C)c2n1 [Compound 1225] | – | 100 to 1000 | 100 to 1000 | < 100
Cc1cn2cc(-c3ncc4c(=O)n(C5CCNC5)ccc4n3)c(O)c(C)c2n1 (stereo not drawn) [Compound 1227] | – | 1000 to 10000 | > 10000 | 100 to 1000
Cc1cn2cc(-c3ncc4c(=O)n([C@@H]5CCNC5)ccc4n3)cc(F)c2n1 [Compound 1228] | – | 1000 to 10000 | > 10000 | < 100
